Reference: BindingDB's records for doi:10.1016/j.chembiol.2007.02.007 (Massachusetts General Hospital, 2007)

molecular target: Phosphatidylinositol 4,5-bisphosphate 3-kinase catalytic subunit alpha isoform (Homo sapiens, UniProt P42336); assay: Enzyme Assay
Sequence (P42336 whole entry, canonical isoform): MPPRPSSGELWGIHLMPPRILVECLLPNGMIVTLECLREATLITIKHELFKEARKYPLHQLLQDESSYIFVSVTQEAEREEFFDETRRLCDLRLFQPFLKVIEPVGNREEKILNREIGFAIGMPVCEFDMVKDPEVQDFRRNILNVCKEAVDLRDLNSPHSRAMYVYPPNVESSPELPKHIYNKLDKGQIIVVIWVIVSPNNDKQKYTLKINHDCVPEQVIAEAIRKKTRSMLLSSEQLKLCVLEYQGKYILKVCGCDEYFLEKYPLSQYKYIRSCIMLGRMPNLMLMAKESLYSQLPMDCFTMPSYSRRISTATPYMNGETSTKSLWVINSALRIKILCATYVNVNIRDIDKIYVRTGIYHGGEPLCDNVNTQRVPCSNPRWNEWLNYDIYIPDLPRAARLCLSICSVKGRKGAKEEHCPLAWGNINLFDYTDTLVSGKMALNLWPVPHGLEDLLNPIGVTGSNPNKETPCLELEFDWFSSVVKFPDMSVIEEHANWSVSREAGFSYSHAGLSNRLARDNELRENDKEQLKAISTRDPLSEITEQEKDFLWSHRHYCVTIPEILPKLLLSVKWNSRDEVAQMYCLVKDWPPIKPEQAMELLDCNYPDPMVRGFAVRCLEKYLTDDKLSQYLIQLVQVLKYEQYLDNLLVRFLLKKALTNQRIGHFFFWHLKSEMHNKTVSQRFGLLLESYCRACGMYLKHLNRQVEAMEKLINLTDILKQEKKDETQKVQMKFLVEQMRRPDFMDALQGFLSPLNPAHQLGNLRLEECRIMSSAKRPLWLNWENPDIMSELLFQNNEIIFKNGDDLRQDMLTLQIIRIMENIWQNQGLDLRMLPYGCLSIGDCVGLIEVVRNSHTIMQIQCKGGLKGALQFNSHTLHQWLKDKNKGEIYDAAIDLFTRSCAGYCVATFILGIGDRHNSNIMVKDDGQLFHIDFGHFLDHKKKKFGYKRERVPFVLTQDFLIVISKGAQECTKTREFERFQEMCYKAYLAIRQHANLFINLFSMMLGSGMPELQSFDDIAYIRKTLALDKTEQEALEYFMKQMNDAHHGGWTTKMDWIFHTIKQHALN
Description: Inhibition of PI3 kinase by WmC20 derivatives causing a formation of covalent bond between WmC20 derivatives and the target protein.

Q: For `COC[C@H]1OC(=O)C(CSCC(NC(C)=O)C(=O)O)=C2C(=O)C(=O)C3=C([C@H](OC(C)=O)C[C@]4(C)C(=O)CCC34)[C@]21C` (some centres undefined) [WmC20-cys, 3], which IC50 is on record?
A: 1.14 µM

Q: How did the IC50 turn out when `COC[C@H]1OC(=O)C(=CN(C)CCCCCC(=O)O)C2C(=O)C(=O)C3=C([C@H](OC(C)=O)C[C@]4(C)C(=O)CC[C@@H]34)[C@]21C` (some centres undefined) [WmC20-NMeHA, 4] was run?
A: 0.108 µM

Q: `COC[C@H]1OC(=O)C(=CNCCCCC(NC(C)=O)C(=O)O)C2C(=O)C(=O)C3=C([C@H](OC(C)=O)C[C@]4(C)C(=O)CC[C@@H]34)[C@]21C` (some centres undefined) [WmC20-lys, 2] was tested. Which IC50 did it give?
A: > 1 µM

Q: With `COC[C@H]1OC(=O)C(=CN2CCCC2C(=O)O)C2C(=O)C(=O)C3=C([C@H](OC(C)=O)C[C@]4(C)C(=O)CC[C@@H]34)[C@]21C` (some centres undefined) [WmC20-pro, 1] as the molecule, how does the IC50 read?
A: 0.068 µM
